Test results taken from ChEMBL document CHEMBL1155409, “Ultrasmall particle of iron oxide--RGD peptidomimetic conjugate: synthesis and characterisation” (Bioorg Med Chem Lett, 2010).
pIC50: −log10 of the molar value.

biological target: Integrin alpha-V/beta-3 (Homo sapiens); assay: Inhibition of human Integrin alphaVbeta3 isolated receptors assessed by standard competitive binding assay

How did the pIC50 turn out when `Nc1cc(C[C@H](NS(=O)(=O)c2cccc(C(F)(F)F)c2)C(=O)O)ccc1OCCCc1ccc2c(n1)NCCC2` was run?
The pIC50 was 10.00.

With `COCCOCCOCCOCC(=O)Nc1cc(C[C@H](NS(=O)(=O)c2cccc(C(F)(F)F)c2)C(=O)O)ccc1OCCCc1ccc2c(n1)NCCC2` as the molecule, how does the pIC50 read?
Its pIC50 is 9.52.

How did the pIC50 turn out when `NCCOCCOCCOCCOCCOCCOCC(=O)Nc1cc(C[C@H](NS(=O)(=O)c2cccc(C(F)(F)F)c2)C(=O)O)ccc1OCCCc1ccc2c(n1)NCCC2` was run?
Its pIC50 is 9.15.
